Measured values taken from patent US20240018136A1, “CDK Inhibitors And Their Use As Pharmaceuticals” (Prelude Therapeutics, Incorporated, priority 2022, published 2024).

What was measured:
CDK2/Cyclin E2 = CDK2/Cyclin E2 (Homo sapiens, UniProt P24941); experiment: CDK2/CyclinE2 enzymatic activity assay (TR-FRET); format: biochemical; details: ATP 1 mM final, read-out: CDK2_E1 IC50
Procedure, shortened: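 Insect-cell-expressed CDK2/Cyclin E2 (1 nM), ULight-4E-BP1 (50 nM) and ATP (1 mM) in HEPES pH 7.4 buffer were preincubated 20 min at RT with compound (9-dose, 3-fold), started with 10 mM MgCl2 and run 45 min at 37 °C. EDTA/Eu-anti-P-4E-BP1 stop, 60 min TR-FRET detection; IC50 from 4-parameter Hill fit.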

CDK4/Cyclin D1 = biological target: T1, CDK4/Cyclin D1 (Homo sapiens, UniProt P11802); experiment: CDK4/CyclinD1 enzymatic activity assay (TR-FRET); format: biochemical; details: ATP 2 mM final, read-out: CDK4_D1 IC50
T1 construct: purchased ProQinase; host or cells: insect cell
Procedure, shortened: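 Insect-cell-expressed CDK4/Cyclin D1 (1 nM) phosphorylated ULight-4E-BP1 peptide (100 nM) at 2 mM ATP in HEPES pH 7.4 buffer after 20 min compound preincubation. Reaction started with 10 mM MgCl2, ran 45 min at 37 °C, then EDTA quench and Eu-anti-phospho-4E-BP1 TR-FRET detection. IC50 from 9-point 3-fold dilutions, 4-parameter fit.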

OVCAR3 p-RB = experiment: pRB ICW assay in OVCAR3 cells; format: cell-based; details: Homo sapiens, OVCAR-3, incubated with compound for 2 hours
Procedure, shortened: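 OVCAR3 cells were treated 2 h at 37 °C with a 9-point half-log compound series, in duplicate, with 10 μM reference compound as maximum inhibition. Cells were then fixed, permeabilized and stained with anti-phospho-RB plus DRAQ5. In-cell western intensities were read at 700/800 nm on Odyssey CLx.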

T1 sequence (P11802 whole entry): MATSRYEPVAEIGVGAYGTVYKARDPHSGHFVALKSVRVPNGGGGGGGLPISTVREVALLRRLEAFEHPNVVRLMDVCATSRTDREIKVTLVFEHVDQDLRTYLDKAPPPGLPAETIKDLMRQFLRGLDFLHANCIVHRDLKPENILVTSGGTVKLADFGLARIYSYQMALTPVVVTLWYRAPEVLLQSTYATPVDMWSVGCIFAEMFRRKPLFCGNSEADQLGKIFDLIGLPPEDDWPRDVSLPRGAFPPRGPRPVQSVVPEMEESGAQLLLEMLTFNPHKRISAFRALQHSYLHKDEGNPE
T1 sequence (P24385 whole entry partner): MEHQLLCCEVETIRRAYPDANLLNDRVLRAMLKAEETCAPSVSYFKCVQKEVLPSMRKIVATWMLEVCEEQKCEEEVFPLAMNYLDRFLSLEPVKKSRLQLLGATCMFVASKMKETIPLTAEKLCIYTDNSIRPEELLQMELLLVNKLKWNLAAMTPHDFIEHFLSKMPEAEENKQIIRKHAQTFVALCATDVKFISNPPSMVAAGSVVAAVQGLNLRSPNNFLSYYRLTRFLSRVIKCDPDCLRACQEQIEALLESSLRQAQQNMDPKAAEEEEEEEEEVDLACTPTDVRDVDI

Structure (SMILES): C[C@@H]1CN(S(=O)(=O)c2cn(C)cn2)CC[C@@H]1Nc1ncc(C(F)(F)F)c(-c2cnc(CC(C)(C)O)s2)n1 [Example 72, 2-methyl-1-(5-(2-(((3R,4S)-3-methyl-1-((1-methyl-1H-imidazol-4-yl)sulfonyl)piperidin-4-yl)amino)-5-(trifluoromethyl)pyrimidin-4-yl)thiazol-2-yl)propan-2-ol]
- IC50 (CDK2/Cyclin E2): ≤ 100 nM
- IC50 (CDK4/Cyclin D1): 100 to 1000 nM
- IC50 (OVCAR3 p-RB): 100 to 1000 nM

Structure (SMILES): CCNS(=O)(=O)N1CCC(Nc2ncc(C(F)(F)F)c(-c3cnc(C)s3)n2)CC1 [Example 48, N-Ethyl-4-((4-(2-methylthiazol-5-yl)-5-(trifluoromethyl)pyrimidin-2-yl)amino)piperidine-1-sulfonamide]
- IC50 (CDK2/Cyclin E2): ≤ 100 nM
- IC50 (CDK4/Cyclin D1): 100 to 1000 nM
- IC50 (OVCAR3 p-RB): > 1000 nM

Structure (SMILES): CCNc1ncc(-c2nc(NC3CCN(S(C)(=O)=O)CC3)ncc2C(F)(F)F)s1 [Example 32, N-ethyl-5-[2-[(1-methylsulfonylpiperidin-4-yl)amino]-5-(trifluoromethyl)pyrimidin-4-yl]-1,3-thiazol-2-amine]
- IC50 (CDK2/Cyclin E2): ≤ 100 nM
- IC50 (CDK4/Cyclin D1): ≤ 100 nM
- IC50 (OVCAR3 p-RB): 100 to 1000 nM

Structure (SMILES): Cc1ncc(-c2nc(N[C@@H]3CCN(S(=O)(=O)c4cnn(C)c4)C[C@H]3F)ncc2C(F)(F)F)s1 [Example 93, N-((3R,4R)-3-fluoro-1-((1-methyl-1H-pyrazol-4-yl)sulfonyl)piperidin-4-yl)-4-(2-methylthiazol-5-yl)-5-(trifluoromethyl)pyrimidin-2-amine]
- IC50 (CDK2/Cyclin E2): ≤ 100 nM
- IC50 (CDK4/Cyclin D1): ≤ 100 nM
- IC50 (OVCAR3 p-RB): 100 to 1000 nM

Structure (SMILES): Cn1cc(S(=O)(=O)N2CCC(Nc3ncc(C(F)(F)F)c(-c4cnc(C(O)C5CC5)s4)n3)CC2)cn1 (stereo not drawn) [Example 84, cyclopropyl(5-(2-((1-((1-methyl-1H-pyrazol-4-yl)sulfonyl)piperidin-4-yl)amino)-5-(trifluoromethyl)pyrimidin-4-yl)thiazol-2-yl)methanol]
- IC50 (CDK2/Cyclin E2): ≤ 100 nM
- IC50 (CDK4/Cyclin D1): ≤ 100 nM
- IC50 (OVCAR3 p-RB): ≤ 100 nM

Structure (SMILES): Cc1cc(CO)ccc1-c1nc(C)c(-c2nc(NC3CCN(S(C)(=O)=O)CC3)ncc2F)s1 [Example 15, [4-[5-[5-fluoro-2-[(1-methylsulfonylpiperidin-4-yl)amino]pyrimidin-4-yl]-4-methyl-1,3-thiazol-2-yl]-3-methylphenyl]methanol]
- IC50 (CDK2/Cyclin E2): ≤ 100 nM
- IC50 (CDK4/Cyclin D1): 100 to 1000 nM
- IC50 (OVCAR3 p-RB): > 1000 nM

Structure (SMILES): Cn1cc(S(=O)(=O)N2CCC(Nc3ncc(C(F)(F)F)c(-c4cnc(CC(C)(C)O)s4)n3)CC2)cn1 [Example 67, 2-Methyl-1-(5-(2-((1-((1-methyl-1H-pyrazol-4-yl)sulfonyl)piperidin-4-yl)amino)-5-(trifluoromethyl)pyrimidin-4-yl)thiazol-2-yl)propan-2-ol]
- IC50 (CDK2/Cyclin E2): ≤ 100 nM
- IC50 (CDK4/Cyclin D1): ≤ 100 nM
- IC50 (OVCAR3 p-RB): ≤ 100 nM

Structure (SMILES): CS(=O)(=O)N1CCC(Nc2ncc(C(F)(F)F)c(-c3cnc(C(F)F)s3)n2)CC1 [Example 42, 4-[2-(Difluoromethyl)-1,3-thiazol-5-yl]-N-(1-methylsulfonylpiperidin-4-yl)-5-(trifluoromethyl)pyrimidin-2-amine]
- IC50 (CDK2/Cyclin E2): ≤ 100 nM
- IC50 (CDK4/Cyclin D1): 100 to 1000 nM
- IC50 (OVCAR3 p-RB): > 1000 nM

Structure (SMILES): CC(O)c1ncc(-c2nc(N[C@@H]3CCN(S(=O)(=O)c4cnn(C)c4)C[C@@H]3F)ncc2C(F)(F)F)s1 (stereo partly drawn) [Example 97, 1-(5-(2-(((3S,4R)-3-fluoro-1-((1-methyl-1H-pyrazol-4-yl)sulfonyl)piperidin-4-yl)amino)-5-(trifluoromethyl)pyrimidin-4-yl)thiazol-2-yl)ethan-1-ol]
- IC50 (CDK2/Cyclin E2): 100 to 1000 nM
- IC50 (CDK4/Cyclin D1): 100 to 1000 nM
- IC50 (OVCAR3 p-RB): > 1000 nM

Structure (SMILES): CC(C)Nc1ncc(-c2nc(NC3CCN(S(C)(=O)=O)CC3)ncc2C(F)(F)F)s1 [Example 41, 5-[2-[(1-Methylsulfonylpiperidin-4-yl)amino]-5-(trifluoromethyl)pyrimidin-4-yl]-N-propan-2-yl-1,3-thiazol-2-amine]
- IC50 (CDK2/Cyclin E2): ≤ 100 nM
- IC50 (CDK4/Cyclin D1): ≤ 100 nM
- IC50 (OVCAR3 p-RB): 100 to 1000 nM

Structure (SMILES): CC(C)(O)Cc1ncc(-c2nc(NC3CCN(S(=O)(=O)CCCN4CCOCC4)CC3)ncc2C(F)(F)F)s1 [Example 79, 2-methyl-1-(5-(2-((1-((3-morpholinopropyl)sulfonyl)piperidin-4-yl)amino)-5-(trifluoromethyl)pyrimidin-4-yl)thiazol-2-yl)propan-2-ol]
- IC50 (CDK2/Cyclin E2): ≤ 100 nM
- IC50 (CDK4/Cyclin D1): ≤ 100 nM
- IC50 (OVCAR3 p-RB): 100 to 1000 nM

Structure (SMILES): Cc1cc(C(C)O)ccc1-c1ncc(-c2nc(NC3CCN(S(C)(=O)=O)CC3)ncc2C(F)(F)F)s1 (stereo not drawn) [Example 7, 1-[3-Methyl-4-[5-[2-[(1-methylsulfonylpiperidin-4-yl)amino]-5-(trifluoromethyl)pyrimidin-4-yl]-1,3-thiazol-2-yl]phenyl]ethanol]
- IC50 (CDK2/Cyclin E2): ≤ 100 nM
- IC50 (CDK4/Cyclin D1): ≤ 100 nM
- IC50 (OVCAR3 p-RB): 100 to 1000 nM

Structure (SMILES): CC(C)(O)Cc1ncc(-c2nc(NC3CCN(S(=O)(=O)c4cnc5cccnn45)CC3)ncc2C(F)(F)F)s1 [Example 76, 1-(5-(2-((1-(imidazo[1,2-b]pyridazin-3-ylsulfonyl)piperidin-4-yl)amino)-5-(trifluoromethyl)pyrimidin-4-yl)thiazol-2-yl)-2-methylpropan-2-ol]
- IC50 (CDK2/Cyclin E2): ≤ 100 nM
- IC50 (CDK4/Cyclin D1): 100 to 1000 nM
- IC50 (OVCAR3 p-RB): ≤ 100 nM

Structure (SMILES): Cc1nn(CCO)cc1-c1ncc(-c2nc(NC3CCN(S(C)(=O)=O)CC3)ncc2C(F)(F)F)s1 [Example 17, 2-[3-methyl-4-[5-[2-[(1-methylsulfonylpiperidin-4-yl)amino]-5-(trifluoromethyl)pyrimidin-4-yl]-1,3-thiazol-2-yl]pyrazol-1-yl]ethanol]
- IC50 (CDK2/Cyclin E2): 100 to 1000 nM
- IC50 (CDK4/Cyclin D1): 100 to 1000 nM
- IC50 (OVCAR3 p-RB): 100 to 1000 nM

Structure (SMILES): C[C@@H]1CN(S(=O)(=O)c2cnn(C)c2)CC[C@@H]1Nc1ncc(C(F)(F)F)c(-c2cnc(CC(C)(C)O)s2)n1 [Example 71, 2-methyl-1-(5-(2-(((3R,4S)-3-methyl-1-((1-methyl-1H-pyrazol-4-yl)sulfonyl)piperidin-4-yl)amino)-5-(trifluoromethyl)pyrimidin-4-yl)thiazol-2-yl)propan-2-ol]
- IC50 (CDK2/Cyclin E2): ≤ 100 nM
- IC50 (CDK4/Cyclin D1): 100 to 1000 nM
- IC50 (OVCAR3 p-RB): 100 to 1000 nM

Structure (SMILES): Cn1cnc(S(=O)(=O)N2CCC(Nc3ncc(C(F)(F)F)c(-c4cnc(C(O)C(C)(C)O)s4)n3)CC2)c1 (stereo not drawn) [Example 75, 2-methyl-1-(5-(2-((1-((1-methyl-1H-imidazol-4-yl)sulfonyl)piperidin-4-yl)amino)-5-(trifluoromethyl)pyrimidin-4-yl)thiazol-2-yl)propane-1,2-diol]
- IC50 (CDK2/Cyclin E2): ≤ 100 nM
- IC50 (CDK4/Cyclin D1): ≤ 100 nM
- IC50 (OVCAR3 p-RB): 100 to 1000 nM

Structure (SMILES): CN(C)Cc1ncc(-c2nc(NC3CCN(S(C)(=O)=O)CC3)ncc2C(F)(F)F)s1 [Example 65, 4-[2-[(Dimethylamino)methyl]-1,3-thiazol-5-yl]-N-(1-methylsulfonylpiperidin-4-yl)-5-(trifluoromethyl)pyrimidin-2-amine]
- IC50 (CDK2/Cyclin E2): ≤ 100 nM
- IC50 (CDK4/Cyclin D1): 100 to 1000 nM
- IC50 (OVCAR3 p-RB): > 1000 nM

Structure (SMILES): CS(=O)(=O)N1CCC(Nc2ncc(C(F)(F)F)c(-c3cnc(Cl)s3)n2)CC1 [Example 26, 4-(2-chlorothiazol-5-yl)-N-(1-(methylsulfonyl)piperidin-4-yl)-5-(trifluoromethyl) pyrimidin-2-amine]
- IC50 (CDK2/Cyclin E2): ≤ 100 nM
- IC50 (CDK4/Cyclin D1): 100 to 1000 nM
- IC50 (OVCAR3 p-RB): 100 to 1000 nM

Structure (SMILES): CS(=O)(=O)N1CCC(Nc2ncc(C(F)(F)F)c(-c3cnc(-c4ccc(CO)cc4Cl)s3)n2)CC1 [Example 9, [3-Chloro-4-[5-[2-[(1-methylsulfonylpiperidin-4-yl)amino]-5-(trifluoromethyl)pyrimidin-4-yl]-1,3-thiazol-2-yl]phenyl]methanol]
- IC50 (CDK2/Cyclin E2): ≤ 100 nM
- IC50 (CDK4/Cyclin D1): ≤ 100 nM
- IC50 (OVCAR3 p-RB): 100 to 1000 nM

Structure (SMILES): CC(O)C(C)Nc1ncc(-c2nc(NC3CCN(S(C)(=O)=O)CC3)ncc2C(F)(F)F)s1 (stereo not drawn) [Example 30, 3-[[5-[2-[(1-methylsulfonylpiperidin-4-yl)amino]-5-(trifluoromethyl)pyrimidin-4-yl]-1,3-thiazol-2-yl]amino]butan-2-ol]
- IC50 (CDK2/Cyclin E2): ≤ 100 nM
- IC50 (CDK4/Cyclin D1): ≤ 100 nM
- IC50 (OVCAR3 p-RB): ≤ 100 nM

Structure (SMILES): CN(C)c1ncc(-c2nc(NC3CCN(S(C)(=O)=O)CC3)ncc2C(F)F)s1 [Example 62, 5-[5-(Difluoromethyl)-2-[(1-methylsulfonylpiperidin-4-yl)amino]pyrimidin-4-yl]-N,N-dimethyl-1,3-thiazol-2-amine]
- IC50 (CDK2/Cyclin E2): 100 to 1000 nM
- IC50 (CDK4/Cyclin D1): 100 to 1000 nM
- IC50 (OVCAR3 p-RB): > 1000 nM

Structure (SMILES): CS(=O)(=O)N1CCC(Nc2ncc(C(F)(F)F)c(-c3cnc(NCCF)s3)n2)CC1 [Example 40, N-(2-Fluoroethyl)-5-[2-[(1-methylsulfonylpiperidin-4-yl)amino]-5-(trifluoromethyl)pyrimidin-4-yl]-1,3-thiazol-2-amine]
- IC50 (CDK2/Cyclin E2): ≤ 100 nM
- IC50 (CDK4/Cyclin D1): ≤ 100 nM
- IC50 (OVCAR3 p-RB): 100 to 1000 nM

Structure (SMILES): Cc1ncc(-c2nc(NC3CCN(S(=O)(=O)c4ccn(C)n4)CC3)ncc2C(F)(F)F)s1 [Example 59, N-[1-(1-Methylpyrazol-3-yl)sulfonylpiperidin-4-yl]-4-(2-methyl-1,3-thiazol-5-yl)-5-(trifluoromethyl)pyrimidin-2-amine]
- IC50 (CDK2/Cyclin E2): ≤ 100 nM
- IC50 (CDK4/Cyclin D1): ≤ 100 nM
- IC50 (OVCAR3 p-RB): 100 to 1000 nM

Structure (SMILES): CC(O)c1ncc(-c2nc(NC3CCN(S(=O)(=O)c4ccsc4)CC3)ncc2C(F)(F)F)s1 (stereo not drawn) [Example 85, 1-(5-(2-((1-(thiophen-3-ylsulfonyl)piperidin-4-yl)amino)-5-(trifluoromethyl)pyrimidin-4-yl)thiazol-2-yl)ethan-1-ol]
- IC50 (CDK2/Cyclin E2): ≤ 100 nM
- IC50 (CDK4/Cyclin D1): ≤ 100 nM
- IC50 (OVCAR3 p-RB): ≤ 100 nM
